Laboratory results reported in patent publication US10233188B2, “CDK2/4/6 inhibitors” (priority 2016, dated 2019).

Legend:
[1] = biological target: CDK2/Cyclin E1 (Homo sapiens (Human), UniProt P24941); test: biochemical; details: CDK2_Ki (nM), phosphorylated CDK2/Cyclin E1, 150 μM ATP, Morrison tight-binding fit
Method: The assay was initiated with the addition of ATP, following a fifteen minutes pre-incubation of enzyme and inhibitor at room temperature in the reaction mixture. The reaction was stopped after 45 minutes at room temperature by the addition of 50 μL of 80 mM EDTA, pH 7.5.

[2] = biological target: CDK6/Cyclin D1 (Homo sapiens (Human), UniProt Q00534); test: biochemical; details: CDK6_Ki (nM), non-phosphorylated CDK6/Cyclin D1, 2 mM ATP, Morrison fit
Chain of CDK6/Cyclin D1 (Q00534 whole entry): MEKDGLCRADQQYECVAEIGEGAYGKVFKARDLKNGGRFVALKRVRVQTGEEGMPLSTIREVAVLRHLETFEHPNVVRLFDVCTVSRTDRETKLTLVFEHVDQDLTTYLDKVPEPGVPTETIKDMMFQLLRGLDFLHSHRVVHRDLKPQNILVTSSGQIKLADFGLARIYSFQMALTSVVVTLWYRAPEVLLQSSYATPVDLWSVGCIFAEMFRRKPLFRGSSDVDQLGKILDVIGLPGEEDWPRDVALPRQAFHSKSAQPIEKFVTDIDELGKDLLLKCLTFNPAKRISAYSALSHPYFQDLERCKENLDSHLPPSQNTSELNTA
Chain of CDK6/Cyclin D1 (P24385 whole entry partner): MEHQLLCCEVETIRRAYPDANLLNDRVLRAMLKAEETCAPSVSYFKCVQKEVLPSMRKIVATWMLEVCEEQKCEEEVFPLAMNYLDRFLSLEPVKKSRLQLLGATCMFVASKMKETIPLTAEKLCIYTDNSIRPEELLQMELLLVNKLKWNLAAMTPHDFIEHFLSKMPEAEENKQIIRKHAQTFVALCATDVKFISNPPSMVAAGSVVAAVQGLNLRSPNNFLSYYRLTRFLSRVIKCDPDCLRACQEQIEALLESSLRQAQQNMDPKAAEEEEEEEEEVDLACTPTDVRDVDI

Row | SMILES | Ki [1] [nM] | Ki [2] [nM]
1 | CCS(=O)(=O)N1CCC(Nc2ncc3ccc(=O)n([C@H]4CCC[C@]4(C)O)c3n2)CC1 (single isomer, unassigned) [Example 77, (+)-2-{[1-(ethylsulfonyl)piperidin-4-yl]amino}-8-[(1R*,2R*)-2-hydroxy-2-methylcyclopentyl]pyrido[2,3-d]pyrimidin-7(8H)-one] | 4.07 | 6.6
2 | C[C@]1(O)CCC[C@@H]1n1c(=O)ccc2cnc(NC3CCN(S(N)(=O)=O)CC3)nc21 (single isomer, unassigned) [Example 184, (+)-4-({8-[(1R*,2R*)-2-hydroxy-2-methylcyclopentyl]-7-oxo-7,8-dihydropyrido[2,3-d]pyrimidin-2-yl}amino)piperidine-1-sulfonamide] | 1.46 | 11.8
3 | Cc1cc2cnc(NC3CCN(S(=O)(=O)CC4CC4)CC3)nc2n([C@H]2CCC[C@]2(C)O)c1=O (single isomer, unassigned) [Example 117, (+)-2-({1-[(cyclopropylmethyl)sulfonyl]piperidin-4-yl}amino)-8-[(1R*,2R*)-2-hydroxy-2-methylcyclopentyl]-6-methylpyrido[2,3-d]pyrimidin-7(8H)-one] | 1.74 | 2.46
4 | CC(F)(F)CNS(=O)(=O)N1CCC(Nc2ncc3ccc(=O)n([C@H]4CCC[C@]4(C)O)c3n2)CC1 (single isomer, unassigned) [Example 67, (+)-N-(2,2-difluoropropyl)-4-({8-[(1R*,2R*)-2-hydroxy-2-methylcyclopentyl]-7-oxo-7,8-dihydropyrido[2,3-d]pyrimidin-2-yl}amino)piperidine-1-sulfonamide] | 4.05 | 21.6
5 | CS(=O)(=O)N1CC[C@H](Nc2ncc3cc(CCO)c(=O)n(C4CCCC4)c3n2)[C@@H](F)C1 (single isomer, unassigned) [Example 156, (−)-8-cyclopentyl-2-{[(3S*,4S*)-3-fluoro-1-(methylsulfonyl)piperidin-4-yl]amino}-6-(2-hydroxyethyl)pyrido[2,3-d]pyrimidin-7(8H)-one] | 1.4 | 1.94
6 | C#CCCS(=O)(=O)N1CCC(Nc2ncc3cc(N)c(=O)n(C4CCCC4)c3n2)CC1 [Example 137, 6-amino-2-{[1-(but-3-yn-1-ylsulfonyl)piperidin-4-yl]amino}-8-cyclopentylpyrido[2,3-d]pyrimidin-7(8H)-one] | 4.08 | 6.3
7 | CCS(=O)(=O)N1CCC(Nc2ncc3ccc(=O)n([C@@H]4CCC[C@@]4(C)O)c3n2)CC1 (single isomer, unassigned) [Example 76, (−)-2-{[1-(ethylsulfonyl)piperidin-4-yl]amino}-8-[(1R*,2R*)-2-hydroxy-2-methylcyclopentyl]pyrido[2,3-d]pyrimidin-7(8H)-one] | 0.21 | 1.24
8 | C[C@@H]1[C@H](O)CC[C@H]1n1c(=O)c(Cl)cc2cnc(NC3CCN(S(C)(=O)=O)CC3)nc21 (single isomer, unassigned) [Example 203, (−)-6-chloro-8-[(1R*,2S*,3R*)-3-hydroxy-2-methylcyclopentyl]-2-{[1-(methylsulfonyl)piperidin-4-yl]amino}pyrido[2,3-d]pyrimidin-7(8H)-one] | 0.51 | 1.53
9 | C[C@@]1(O)CCC[C@H]1n1c(=O)ccc2cnc(NC3CCN(S(=O)(=O)c4nncs4)CC3)nc21 (single isomer, unassigned) [Example 80, (−)-8-[(1R*,2R*)-2-hydroxy-2-methylcyclopentyl]-2-{[1-(1,3,4-thiadiazol-2-ylsulfonyl)piperidin-4-yl]amino}pyrido[2,3-d]pyrimidin-7(8H)-one] | 0.25 | 1.53
10 | CNS(=O)(=O)N1CCC(Nc2ncc3ccc(=O)n([C@@H]4C[C@@H](O)CC[C@H]4F)c3n2)CC1 (single isomer, unassigned) [Example 220, (−)-4-({8-[(1S*,2S*,5R*)-2-fluoro-5-hydroxycyclohexyl]-7-oxo-7,8-dihydropyrido[2,3-d]pyrimidin-2-yl}amino)-N-methylpiperidine-1-sulfonamide] | 7.46 | 18.3
11 | CC(F)(F)CNS(=O)(=O)N1CCC(Nc2ncc3ccc(=O)n([C@@H]4CCC[C@@]4(C)O)c3n2)CC1 (single isomer, unassigned) [Example 66, (−)-N-(2,2-difluoropropyl)-4-({8-[(1R*,2R*)-2-hydroxy-2-methylcyclopentyl]-7-oxo-7,8-dihydropyrido[2,3-d]pyrimidin-2-yl}amino)piperidine-1-sulfonamide] | 0.21 | 2.47
12 | C[C@@]1(O)CCC[C@H]1n1c(=O)ccc2cnc(NC3CCN(S(=O)(=O)C4CCS(=O)(=O)C4)CC3)nc21 (single isomer, unassigned) [Example 70] | 0.35 | 0.83
13 | CNS(=O)(=O)N1CCC(Nc2ncc3ccc(=O)n([C@@H]4CCC[C@@]4(C)O)c3n2)CC1 (single isomer, unassigned) [Example 56, (−)-4-({8-[(1R*,2R*)-2-hydroxy-2-methylcyclopentyl]-7-oxo-7,8-dihydropyrido[2,3-d]pyrimidin-2-yl}amino)-N-methylpiperidine-1-sulfonamide] | 0.28 | 1.77
14 | C[C@@]1(O)CCC[C@H]1n1c(=O)ccc2cnc(NC3CCN(S(=O)(=O)CF)CC3)nc21 (single isomer, unassigned) [Example 58, (−)-2-({1-[(fluoromethyl)sulfonyl]piperidin-4-yl}amino)-8-[(1R*,2R*)-2-hydroxy-2-methylcyclopentyl]pyrido[2,3-d]pyrimidin-7(8H)-one] | 0.27 | 0.49
15 | COC(C)(C)CNS(=O)(=O)N1CCC(Nc2ncc3cc(C)c(=O)n([C@@H]4CCC[C@@]4(C)O)c3n2)CC1 (single isomer, unassigned) [Example 98, (−)-4-({8-[(1R*,2R*)-2-hydroxy-2-methylcyclopentyl]-6-methyl-7-oxo-7,8-dihydropyrido[2,3-d]pyrimidin-2-yl}amino)-N-(2-methoxy-2-methylpropyl)piperidine-1-sulfonamide] | 0.33 | 0.74
16 | Cc1cc2cnc(NC3CCN(S(=O)(=O)CC4CC4)CC3)nc2n([C@@H]2CCC[C@@]2(C)O)c1=O (single isomer, unassigned) [Example 116, (−)-2-({1-[(cyclopropylmethyl)sulfonyl]piperidin-4-yl}amino)-8-[(1R*,2R*)-2-hydroxy-2-methylcyclopentyl]-6-methylpyrido[2,3-d]pyrimidin-7(8H)-one] | 0.15 | 0.21
17 | C[C@@H]1CCC[C@@H]1n1c(=O)c(CO)cc2cnc(NC3CCN(S(C)(=O)=O)CC3)nc21 [Example 51, 6-(hydroxymethyl)-8-[(1S,2R)-2-methylcyclopentyl]-2-{[1-(methylsulfonyl)piperidin-4-yl]amino}pyrido[2,3-d]pyrimidin-7(8H)-one] | 1.74 | 0.13
18 | CS(=O)(=O)N1CCC(Nc2ncc3cc(C(F)F)c(=O)n([C@@H]4CCC[C@@H](O)C4)c3n2)CC1 [Example 212, 6-(difluoromethyl)-8-[(1R,3R)-3-hydroxycyclohexyl]-2-{[1-(methylsulfonyl)piperidin-4-yl]amino}pyrido[2,3-d]pyrimidin-7(8H)-one] | 1.2 | 0.17
19 | C[C@]1(O)CCC[C@@H]1n1c(=O)ccc2cnc(NC3CCN(S(=O)(=O)CC4CC4)CC3)nc21 (single isomer, unassigned) [Example 91, (+)-2-({1-[(cyclopropylmethyl)sulfonyl]piperidin-4-yl}amino)-8-[(1R*,2R*)-2-hydroxy-2-methylcyclopentyl]pyrido[2,3-d]pyrimidin-7(8H)-one] | 3.01 | 2.72
20 | NS(=O)(=O)N1CCC(Nc2ncc3ccc(=O)n(C4CCCCCC4)c3n2)CC1 [Example 21, 4-[(8-cycloheptyl-7-oxo-7,8-dihydropyrido[2,3-d]pyrimidin-2-yl)amino]piperidine-1-sulfonamide] | 0.29 | 7
21 | COCCS(=O)(=O)N1CCC(Nc2ncc3ccc(=O)n([C@@H]4CCCC4(C)O)c3n2)CC1 (single isomer, unassigned) [Example 72, (−)-8-[(1R*,2R*)-2-hydroxy-2-methylcyclopentyl]-2-({1-[(2-methoxyethyl)sulfonyl]piperidin-4-yl}amino)pyrido[2,3-d]pyrimidin-7(8H)-one] | 0.42 | 1.09
22 | Cc1cc2cnc(NC3CCN(S(=O)(=O)NC4CCOCC4)CC3)nc2n([C@@H]2CCC[C@@]2(C)O)c1=O (single isomer, unassigned) [Example 96, (−)-4-({8-[(1R*,2R*)-2-hydroxy-2-methylcyclopentyl]-6-methyl-7-oxo-7,8-dihydropyrido[2,3-d]pyrimidin-2-yl}amino)-N-(tetrahydro-2H-pyran-4-yl)piperidine-1-sulfonamide] | 0.24 | 1.06
23 | CS(=O)(=O)N1CCC(Nc2ncc3cc(C(F)F)c(=O)n([C@@H]4CC[C@@H](O)C4)c3n2)CC1 (single isomer, unassigned) [Example 133, (−)-6-(difluoromethyl)-8-[(1R*,3R*)-3-hydroxycyclopentyl]-2-{[1-(methylsulfonyl)piperidin-4-yl]amino}pyrido[2,3-d]pyrimidin-7(8H)-one] | 2.37 | 0.94
24 | CNS(=O)(=O)N1CCC(Nc2ncc3cc(Cl)c(=O)n([C@H]4CCC[C@]4(C)O)c3n2)CC1 (single isomer, unassigned) [Example 127, (+)-4-({6-chloro-8-[(1R*,2R*)-2-hydroxy-2-methylcyclopentyl]-7-oxo-7,8-dihydropyrido[2,3-d]pyrimidin-2-yl}amino)-N-methylpiperidine-1-sulfonamide] | 3.46 | 12.6
25 | C[C@H]1CCC[C@H]1n1c(=O)c(CC(N)=O)cc2cnc(NC3CCN(S(C)(=O)=O)CC3)nc21 [Example 47, 2-(8-[(1R,2S)-2-methylcyclopentyl]-2-{[1-(methylsulfonyl)piperidin-4-yl]amino}-7-oxo-7,8-dihydropyrido[2,3-d]pyrimidin-6-yl)acetamide] | 0.27 | 1.09
